We go through 15 substances from patent publication US12595289B2, “Therapeutic agent for breast cancer comprising BIG3-PHB2 interaction-inhibiting peptide derived from PHB2” (TOKUSHIMA UNIVERSITY, priority 2018, dated 2026).

In the assay the test system is Human breast cancer cell line MCF-7. In words: Estrogen (E2)-dependent growth assay on MCF-7. It is filed as cell-based. The note with it: 24 hours; for suppression ratio of E2-dependent growth: MCF-7, 10 μM each peptide, 10 nM estrogen; for suppression ratio of estrogen-dependent growth: MCF-7, 10 nM estrogen, peptide concentration not given (FIG. 11B, 12B). The protocol:
Growth assay on MCF-7 was carried out by seeding cells into 48-well plates (2×10^4 cells/200 μL). First, on the next day after seeding, the medium was changed to phenol red-free DMEM/F12 (Thermo Fisher Scientific) supplemented with 10% FBS, 1% Antibiotic/Antimycotic solution, 0.1 mM NEAA, 1 mM sodium pyruvate, and 10 μg/mL insulin. 24 hours later, the cells were treated with 10 nM 17β-estradiol (estrogen, Sigma) alone or with 10 nM estrogen and a PHB2 sequence-derived peptide. Growth assay on MCF-10A was carried out by seeding cells into 48-well plates (2×10^4 cells/200 μL). 24 hours after seeding, PHB2 sequence-derived peptide was added. Growth assays were carried out using the Cell Counting Kit-8 (CCK-8) (Dojindo, Kumamoto, Japan). The data are shown by mean±standard deviation of three independent experiments.
PHB2 peptides 11-21aa and 76-88aa were cross-linked by three types of cross-linking methods (FIG. 10A: hexafluorobenzene cross-linking, decafluorobiphenyl cross-linking, and disulfide cross-linking) to prepare cross-linked PHB2 peptides (stapled PHB2 peptides) (FIG. 10B), and the suppressive effects of these peptides on estrogen-dependent growth were examined. In the experiment, breast cancer cells MCF-7 were seeded, 10 μM each PHB2 peptide and 10 nM estrogen were added after 48 hours, and the cell number was evaluated after another 24 hours by MTT assay.

Several values for one entry are separate records, joined by “and”; a condition that tells them apart may be missing. Identical values can stand only once. Positions of bridges follow the written chain, without caps; N, C: chain ends. Non-standard residues stand in square brackets, D forms with d. No end group written: not given here. Nle = CCCC[C@H](N)C(=O)O

Consider “SEQ ID NO: 117: cross-linked PHB2 peptide 11-21aa without polyarginine at the C terminus (CRLPAGPRG[Nle]GTC-NH2; disulfide 1-13)”, for which the “suppression ratio of E2-dependent growth” value is reported as “about 70%”.
Regarding “SEQ ID NO: 120: cross-linked PHB2 peptide 76-88aa without polyarginine at the C terminus (CQYPIIYDIRARPRC-NH2; linker 1-15 via decafluorobiphenyl)”, the “suppression ratio of E2-dependent growth” value is “about 70%”.
As for “SEQ ID NO: 126: cyclic PHB2 peptide 76-88aa, hexafluorobenzene cross-linked (CQYPIIYDIRARPRCF[Nal]RRRR; linker 1-15 via hexafluorobenzene; not fully specified (C-terminus))”, the “suppression ratio of estrogen-dependent growth” value is “about 80%”.
For the substance “No. 50: PHB2 sequence-derived peptide 75-89aa (FQYPIIYDIRARPRK; not fully specified (C-terminus))”, the “suppression ratio of E2-dependent growth” value is given as “almost the same suppressive effect”.
The same measure, in the same setting: with “SEQ ID NO: 121: cross-linked PHB2 peptide 76-88aa without polyarginine at the C terminus (CQYPIIYDIRARPRC-NH2; disulfide 1-15)” the entry was “about 70%”.
On to “SEQ ID NO: 124: cyclic PHB2 peptide 11-21aa, decafluorobiphenyl cross-linked (CRLPAGPRG[Nle]GTCF[Nal]RRRR; linker 1-13 via decafluorobiphenyl; not fully specified (C-terminus))”, for which the “suppression ratio of estrogen-dependent growth” value is on record as “about 70%”.
For “SEQ ID NO: 119: cross-linked PHB2 peptide 76-88aa without polyarginine at the C terminus (CQYPIIYDIRARPRC-NH2; linker 1-15 via hexafluorobenzene)”, the “suppression ratio of E2-dependent growth” value is given as “about 70%”.
Still for that read-out and setting: with “SEQ ID NO: 115: cross-linked PHB2 peptide 11-21aa without polyarginine at the C terminus (CRLPAGPRG[Nle]GTC-NH2; linker 1-13 via hexafluorobenzene)” the entry was “about 70%”; with “SEQ ID NO: 116: cross-linked PHB2 peptide 11-21aa without polyarginine at the C terminus (CRLPAGPRG[Nle]GTC-NH2; linker 1-13 via decafluorobiphenyl)”, “about 70%”.
Still for that read-out and setting: with “No. 2: PHB2 sequence-derived peptide 42-50aa (TVEGGHRAI; not fully specified (C-terminus))” the figure was 22% and 20%.
With “SEQ ID NO: 127: cyclic PHB2 peptide 76-88aa, decafluorobiphenyl cross-linked (CQYPIIYDIRARPRCF[Nal]RRRR; linker 1-15 via decafluorobiphenyl; not fully specified (C-terminus))”, the “suppression ratio of estrogen-dependent growth” value is given as “about 80%”.
“SEQ ID NO: 134: PHB2 peptide 11-22aa in which glycines at positions 15 and 18 were substituted with D-leucines (RLPA[dL]PR[dL]MGTARRRRRRRR-NH2)”: the “suppression ratio of estrogen-dependent growth” value is reported as “about 65%”.
With “No. 3: PHB2 sequence-derived peptide 38-50aa (ESVFTVEGGHRAI; not fully specified (C-terminus))”, the “suppression ratio of E2-dependent growth” value is 23% and 17%.
For “SEQ ID NO: 123: cyclic PHB2 peptide 11-21aa, hexafluorobenzene cross-linked (CRLPAGPRG[Nle]GTCF[Nal]RRRR; linker 1-13 via hexafluorobenzene; not fully specified (C-terminus))”, the “suppression ratio of estrogen-dependent growth” value is reported as “about 70%”.
Consider “SEQ ID NO: 133: PHB2 peptide 11-22aa in which glycines at positions 15 and 18 were substituted with D-alanines (RLPA[dA]PR[dA]MGTARRRRRRRR-NH2)”, for which the “suppression ratio of estrogen-dependent growth” value was “no suppressive effect”.
